Test results reported in ChEMBL document CHEMBL1782028, “Evaluation of structurally diverse neuronal nicotinic receptor ligands for selectivity at the alpha6( *) subtype” (Bioorg Med Chem Lett, 2009).

How the values were obtained:
[1] = Selectivity ratio, ratio of EC50 for alpha3beta4* nAChR in mouse to EC50 for alpha6beta2*nAChR in mouse
[2] = Selectivity ratio, ratio of EC50 for alpha3beta4* nAChR in mouse to EC50 for alpha4beta2*nAChR in mouse
[3] = biological target: Neuronal acetylcholine receptor subunit alpha-4/alpha-6/beta-2/beta-3 (Mus musculus) (UniProt Q9ERK7+O70174+Q9R0W9+Q8BMN3); experiment: Activity at alpha6alpha4beta3beta2 nAChR in mouse striatal synaptosomes assessed as alpha-conotoxic […] DA release relative to control; assay type: subcellular; conditions: Brain
[4] = biological target: T1, Neuronal acetylcholine receptor subunit alpha-3/beta-4 (Mus musculus, UniProt Q8R493+Q8R4G9); experiment: Activity at alpha3beta4* nAChR in mouse interpeduncular nucleus assessed as [3H]ACh release by scintillation counting; assay type: tissue-based
[5] = Selectivity ratio, ratio of EC50 for alpha3beta4* nAChR in mouse to Ki for alpha4beta2*nAChR in mouse
[6] = biological target: Nicotinic acetylcholine receptor alpha-4/beta-2 (Mus musculus) (UniProt Q9ERK7+Q8R493); experiment: Activity at alpha4beta2*nAChR in mouse striatal synaptosomes assessed as alpha-conotoxic MII-resistant DA release relative to control; assay type: subcellular; conditions: Brain
[7] = biological target: T2, Neuronal acetylcholine receptor subunit alpha-6/beta-2 (Mus musculus, UniProt Q9ERK7+Q9R0W9); experiment: Inhibition of mouse alpha6alpha4beta3beta2 nAChR; assay type: protein-complex assay
[8] = biological target: T2, Neuronal acetylcholine receptor subunit alpha-6/beta-2; experiment: Displacement of [125I]-alpha-Conotoxin MII from alpha6beta2* nAChR in mouse olfactory tubercles, striatum and superior coliculus; assay type: tissue-based, Olfactory tubercle
[9] = biological target: Neuronal acetylcholine receptor subunit alpha-7 (Mus musculus, UniProt P49582); experiment: Displacement of [125I]alpha-bungarotoxin from alpha7 nAChR in C57BL/6J mouse hippocampal membrane; assay type: tissue-based, Hippocampus
[10] = Selectivity ratio, ratio of EC50 for alpha3beta4* nAChR in mouse to Ki for alpha6beta2*nAChR in mouse
[11] = biological target: T1, Neuronal acetylcholine receptor subunit alpha-3/beta-4; experiment: Activity at alpha3beta4* nAChR in mouse interpeduncular nucleus assessed as [3H]ACh release by scintillation counting relative to control; assay type: tissue-based
[12] = biological target: T3, Nicotinic acetylcholine receptor alpha-4/beta-2 (Mus musculus, UniProt Q8R493+Q9ERK7); experiment: Displacement of [125I]epibatidine from alpha4beta2* nAChR in C57BL/6J mouse cortical membrane by gamma counting; assay type: cell membranes
[13] = biological target: Neuronal acetylcholine receptor subunit alpha-4/alpha-6/beta-2/beta-3 (Mus musculus, UniProt O70174+Q8BMN3+Q9ERK7+Q9R0W9); experiment: (§1) Activity at alpha6alpha4beta3beta2 nAChR in mouse striatal synaptosomes assessed as alpha-conotoxic […] DA release; assay type: subcellular, Brain
[14] = biological target: T3, Nicotinic acetylcholine receptor alpha-4/beta-2; experiment: Activity at alpha4beta2*nAChR in mouse striatal synaptosomes assessed as alpha-conotoxic MII-resistant DA release; assay type: subcellular, Brain
[15] = biological target: Neuronal acetylcholine receptor subunit alpha-4/alpha-6/beta-2/beta-3 (Mus musculus, UniProt Q9ERK7+O70174+Q9R0W9+Q8BMN3); experiment: as §1; assay type: subcellular, Brain

T1 sequence (Q8R493 whole entry): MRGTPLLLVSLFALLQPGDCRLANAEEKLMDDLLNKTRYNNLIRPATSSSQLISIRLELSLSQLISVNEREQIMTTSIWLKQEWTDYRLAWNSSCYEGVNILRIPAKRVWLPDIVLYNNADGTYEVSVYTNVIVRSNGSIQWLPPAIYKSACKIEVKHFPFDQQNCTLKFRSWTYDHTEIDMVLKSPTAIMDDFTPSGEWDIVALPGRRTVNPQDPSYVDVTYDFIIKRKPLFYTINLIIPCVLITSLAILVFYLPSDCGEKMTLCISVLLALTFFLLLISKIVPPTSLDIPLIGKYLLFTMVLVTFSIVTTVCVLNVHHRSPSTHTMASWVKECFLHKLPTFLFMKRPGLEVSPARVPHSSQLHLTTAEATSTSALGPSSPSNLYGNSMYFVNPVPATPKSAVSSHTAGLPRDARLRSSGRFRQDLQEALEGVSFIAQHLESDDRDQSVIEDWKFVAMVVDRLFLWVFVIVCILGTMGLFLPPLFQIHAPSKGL
T1 sequence (Q8R4G9 whole entry): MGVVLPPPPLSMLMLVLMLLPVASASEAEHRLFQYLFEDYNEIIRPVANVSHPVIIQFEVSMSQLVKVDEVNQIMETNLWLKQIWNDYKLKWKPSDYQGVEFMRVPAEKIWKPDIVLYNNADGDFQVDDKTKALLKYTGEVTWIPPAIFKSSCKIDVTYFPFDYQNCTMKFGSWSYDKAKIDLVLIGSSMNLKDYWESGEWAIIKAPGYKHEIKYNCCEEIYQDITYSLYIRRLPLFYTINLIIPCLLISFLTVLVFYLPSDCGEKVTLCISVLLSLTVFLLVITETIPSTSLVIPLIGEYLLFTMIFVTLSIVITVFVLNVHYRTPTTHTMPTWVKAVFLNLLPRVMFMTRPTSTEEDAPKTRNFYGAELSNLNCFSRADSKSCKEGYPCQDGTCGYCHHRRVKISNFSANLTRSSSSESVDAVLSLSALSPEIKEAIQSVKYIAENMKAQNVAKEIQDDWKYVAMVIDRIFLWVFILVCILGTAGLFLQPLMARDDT
Neuronal acetylcholine receptor subunit alpha-4/alpha-6/beta-2/beta-3 (Mus musculus), sequence (O70174 31-629 partner limits assumed): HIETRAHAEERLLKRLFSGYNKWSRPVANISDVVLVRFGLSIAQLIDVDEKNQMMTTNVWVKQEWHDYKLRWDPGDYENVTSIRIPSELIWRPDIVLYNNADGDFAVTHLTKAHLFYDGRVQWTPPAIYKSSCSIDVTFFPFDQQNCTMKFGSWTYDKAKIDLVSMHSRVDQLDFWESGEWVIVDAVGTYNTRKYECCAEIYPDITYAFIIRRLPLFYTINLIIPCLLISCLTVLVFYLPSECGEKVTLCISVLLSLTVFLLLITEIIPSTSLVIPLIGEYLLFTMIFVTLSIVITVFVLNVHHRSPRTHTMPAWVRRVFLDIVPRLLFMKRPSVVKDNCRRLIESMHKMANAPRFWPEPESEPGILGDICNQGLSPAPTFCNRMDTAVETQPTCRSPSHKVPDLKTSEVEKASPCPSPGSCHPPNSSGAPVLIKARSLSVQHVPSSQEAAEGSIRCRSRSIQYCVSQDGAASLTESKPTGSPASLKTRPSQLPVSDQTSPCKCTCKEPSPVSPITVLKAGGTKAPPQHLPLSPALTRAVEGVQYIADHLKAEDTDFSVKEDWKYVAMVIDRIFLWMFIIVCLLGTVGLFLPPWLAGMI
Neuronal acetylcholine receptor subunit alpha-4/alpha-6/beta-2/beta-3 (Mus musculus), sequence (Q8BMN3 31-464 partner limits assumed): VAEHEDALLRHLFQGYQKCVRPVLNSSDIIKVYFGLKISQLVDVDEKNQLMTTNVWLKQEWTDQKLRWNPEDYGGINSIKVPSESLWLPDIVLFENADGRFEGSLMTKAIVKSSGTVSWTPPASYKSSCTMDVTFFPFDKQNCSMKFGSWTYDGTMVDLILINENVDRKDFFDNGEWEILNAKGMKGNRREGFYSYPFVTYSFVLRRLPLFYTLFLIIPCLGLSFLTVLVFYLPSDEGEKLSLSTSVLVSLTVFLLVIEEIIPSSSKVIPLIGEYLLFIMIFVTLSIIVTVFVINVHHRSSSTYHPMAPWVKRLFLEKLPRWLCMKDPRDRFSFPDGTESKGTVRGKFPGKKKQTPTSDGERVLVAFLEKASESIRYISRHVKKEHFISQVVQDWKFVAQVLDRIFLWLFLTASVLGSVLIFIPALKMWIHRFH
Neuronal acetylcholine receptor subunit alpha-4/alpha-6/beta-2/beta-3 (Mus musculus), sequence (Q9ERK7 26-501 limits assumed): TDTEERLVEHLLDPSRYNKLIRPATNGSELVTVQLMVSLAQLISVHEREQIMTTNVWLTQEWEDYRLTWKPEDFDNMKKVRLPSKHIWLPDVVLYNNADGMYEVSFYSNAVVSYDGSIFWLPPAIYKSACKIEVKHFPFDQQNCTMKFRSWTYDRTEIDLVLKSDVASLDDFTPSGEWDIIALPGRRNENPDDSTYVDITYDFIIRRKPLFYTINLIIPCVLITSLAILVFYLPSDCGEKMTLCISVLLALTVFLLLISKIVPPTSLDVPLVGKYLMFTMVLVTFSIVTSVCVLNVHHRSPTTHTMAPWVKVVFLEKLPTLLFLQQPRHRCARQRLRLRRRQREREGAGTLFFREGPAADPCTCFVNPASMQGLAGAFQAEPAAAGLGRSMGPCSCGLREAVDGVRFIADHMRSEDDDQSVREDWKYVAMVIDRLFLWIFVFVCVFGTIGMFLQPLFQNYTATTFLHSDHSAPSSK
Neuronal acetylcholine receptor subunit alpha-4/alpha-6/beta-2/beta-3 (Mus musculus), sequence (Q9R0W9 31-494 partner limits assumed): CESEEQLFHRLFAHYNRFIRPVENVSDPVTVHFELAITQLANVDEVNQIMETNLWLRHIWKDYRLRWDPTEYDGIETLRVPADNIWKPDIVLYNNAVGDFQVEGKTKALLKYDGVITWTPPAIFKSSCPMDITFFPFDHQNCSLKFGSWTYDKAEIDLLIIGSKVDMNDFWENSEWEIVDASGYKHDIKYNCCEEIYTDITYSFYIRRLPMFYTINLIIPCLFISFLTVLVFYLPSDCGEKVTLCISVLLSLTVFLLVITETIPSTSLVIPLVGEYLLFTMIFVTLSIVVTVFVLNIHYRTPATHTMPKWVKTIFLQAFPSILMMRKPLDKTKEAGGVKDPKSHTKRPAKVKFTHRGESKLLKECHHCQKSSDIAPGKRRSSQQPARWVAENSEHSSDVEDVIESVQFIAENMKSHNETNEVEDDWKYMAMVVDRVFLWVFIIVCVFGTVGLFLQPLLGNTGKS
T3 sequence (Q9ERK7 whole entry): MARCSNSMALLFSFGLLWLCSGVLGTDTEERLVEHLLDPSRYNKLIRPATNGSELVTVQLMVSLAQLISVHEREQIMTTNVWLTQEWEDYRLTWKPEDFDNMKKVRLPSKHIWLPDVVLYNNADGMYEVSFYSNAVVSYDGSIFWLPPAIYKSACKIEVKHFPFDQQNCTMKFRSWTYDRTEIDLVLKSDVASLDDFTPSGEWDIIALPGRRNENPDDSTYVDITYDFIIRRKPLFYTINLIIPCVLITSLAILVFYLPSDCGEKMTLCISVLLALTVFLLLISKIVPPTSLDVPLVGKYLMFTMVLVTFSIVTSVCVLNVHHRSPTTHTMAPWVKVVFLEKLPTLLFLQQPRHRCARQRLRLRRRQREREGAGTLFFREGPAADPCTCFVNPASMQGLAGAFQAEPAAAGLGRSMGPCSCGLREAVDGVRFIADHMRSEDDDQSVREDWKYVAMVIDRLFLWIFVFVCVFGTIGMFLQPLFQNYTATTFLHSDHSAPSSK
T3 sequence (Q8R493 whole entry): as the sequence (Q8R493 whole entry) above
T2 sequence (Q9ERK7 whole entry): as the sequence (Q9ERK7 whole entry) above
T2 sequence (Q9R0W9 whole entry): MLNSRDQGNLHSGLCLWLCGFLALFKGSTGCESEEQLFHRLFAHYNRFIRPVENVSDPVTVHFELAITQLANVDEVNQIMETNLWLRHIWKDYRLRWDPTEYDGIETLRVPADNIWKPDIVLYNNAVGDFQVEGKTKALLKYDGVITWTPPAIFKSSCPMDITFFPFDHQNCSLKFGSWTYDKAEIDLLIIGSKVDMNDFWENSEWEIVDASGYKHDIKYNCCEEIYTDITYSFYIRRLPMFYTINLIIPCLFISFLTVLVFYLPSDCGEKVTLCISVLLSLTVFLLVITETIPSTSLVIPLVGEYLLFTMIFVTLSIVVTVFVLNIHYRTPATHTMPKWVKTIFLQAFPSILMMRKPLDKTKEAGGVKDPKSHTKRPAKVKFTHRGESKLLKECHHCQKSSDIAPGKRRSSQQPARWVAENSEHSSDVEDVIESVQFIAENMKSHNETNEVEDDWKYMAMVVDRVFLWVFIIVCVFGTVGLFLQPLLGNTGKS
Neuronal acetylcholine receptor subunit alpha-7, sequence (P49582 whole entry): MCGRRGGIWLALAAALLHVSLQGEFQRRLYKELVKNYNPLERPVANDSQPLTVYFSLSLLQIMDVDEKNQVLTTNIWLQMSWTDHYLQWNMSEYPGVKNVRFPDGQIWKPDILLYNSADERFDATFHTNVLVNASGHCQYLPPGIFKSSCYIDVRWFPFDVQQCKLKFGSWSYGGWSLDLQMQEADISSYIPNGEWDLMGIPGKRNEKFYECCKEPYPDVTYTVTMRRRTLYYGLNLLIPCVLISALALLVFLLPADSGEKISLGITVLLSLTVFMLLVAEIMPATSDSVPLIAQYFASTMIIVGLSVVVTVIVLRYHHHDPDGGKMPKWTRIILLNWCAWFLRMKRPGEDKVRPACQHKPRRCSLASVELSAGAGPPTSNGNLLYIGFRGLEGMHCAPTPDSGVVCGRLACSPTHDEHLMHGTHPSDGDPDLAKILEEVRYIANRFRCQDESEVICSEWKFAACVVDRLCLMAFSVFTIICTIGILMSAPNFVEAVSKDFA

C(#C[C@H]1CCCN1)c1cncnc1.O=C(O)[C@@H](O)[C@H](O)[C@H](O)[C@@H](O)C(=O)O
Ratio EC50 [1]: 28
Ratio EC50 [2]: 10.6

c1cncc(CC2CC3CCN2CC3)c1 (stereo not given)
Imax [3]: 96%

O=C(O)C(F)(F)F.c1ncc(CC2CC3CCN2CC3)cn1 (stereo not given)
Emax [4]: 106%
Ratio [5]: 87.5
Imax [6]: 92%
Ki [7]: 2500 nM
Ki [8]: 115 nM
Ki [9]: 2.59 µM
Ratio [10]: 11.2
Imax [3]: 91%
EC50 [11]: 28 µM
Ki [12]: 59 nM

CN1C2C=C(c3cccnc3)CC1CC2.Cl.Cl (stereo not given)
Emax [4]: 71%
Emax [6]: 75%
EC50 [13]: 200 nM
Ratio EC50 [1]: 105
EC50 [14]: 3.4 µM
Ki [8]: 55 nM
Ki [9]: 2.11 µM
Ratio EC50 [2]: 6.2
Emax [3]: 50%
EC50 [11]: 21 µM
Ki [12]: 9.8 nM

CN1C2C=C(c3cncnc3)CC1CC2.O=C(O)C(F)(F)F (stereo not given)
Emax [4]: 35%
Emax [6]: 45%
EC50 [13]: 100 nM
Ratio EC50 [1]: 410
EC50 [14]: 1.8 µM
Ki [8]: 17 nM
Ki [9]: 9.1 µM
Ratio EC50 [2]: 22.7
Emax [3]: 77%
EC50 [11]: 41 µM
Ki [12]: 1.2 nM

C(#C[C@H]1CCCN1)c1cccnc1.O=C(O)[C@@H](O)[C@H](O)[C@H](O)[C@@H](O)C(=O)O
Emax [4]: 81%
Emax [6]: 120%
EC50 [13]: 700 nM
Ratio EC50 [1]: 8
EC50 [14]: 13 µM
Ki [8]: 242 nM
Ki [9]: 0.733 µM
Ratio EC50 [2]: 0.4
Emax [3]: 42%
EC50 [11]: 5.6 µM
Ki [12]: 20 nM

C(=C\[C@@H]1CCNC1)/c1cncnc1.O=C(O)[C@@H](O)[C@H](O)[C@H](O)[C@@H](O)C(=O)O
Emax [4]: 97%
Emax [6]: 133%
EC50 [13]: 530 nM
Ratio EC50 [1]: 304
EC50 [14]: 19 µM
Ki [8]: 325 nM
Ki [9]: > 10 µM
Ratio EC50 [2]: 8.5
Emax [3]: 48%
EC50 [11]: 161 µM
Ki [12]: 24 nM

O=C(O)C(F)(F)F.c1ncc(C2CC3CCN2CC3)cn1 (stereo not given)
Emax [4]: 95%
Emax [6]: 43%
EC50 [13]: 90 nM
Ratio EC50 [1]: 26.7
EC50 [14]: 0.45 µM
Ki [8]: 8 nM
Ki [9]: 1.1 µM
Ratio EC50 [2]: 5.3
Emax [3]: 104%
EC50 [11]: 2.4 µM
Ki [12]: 1.8 nM

C(#C[C@H]1CCCN1)c1cncnc1
Emax [4]: 74%
Emax [6]: 64%
EC50 [13]: 1200 nM
EC50 [14]: 3.2 µM
Ki [8]: 340 nM
Ki [9]: 5.77 µM
Emax [3]: 134%
EC50 [11]: 34 µM
Ki [12]: 30 nM

CNCC/C=C/c1cncnc1.O=C(O)[C@@H](O)[C@H](O)[C@H](O)[C@@H](O)C(=O)O
Emax [4]: 4%
Emax [6]: 73%
EC50 [13]: 37000 nM
Ratio EC50 [1]: 0.26
EC50 [14]: 5.9 µM
Ki [8]: 1060 nM
Ki [9]: > 10 µM
Ratio EC50 [2]: 1.6
Emax [3]: 80%
EC50 [11]: 9.5 µM
Ki [12]: 69 nM

CNCC/C=C/c1cccnc1.O=C(O)[C@@H](O)[C@H](O)[C@H](O)[C@@H](O)C(=O)O
Emax [4]: 45%
Emax [6]: 122%
EC50 [15]: Not Active
EC50 [14]: 8.3 µM
Ki [8]: 1550 nM
Ki [9]: > 10 µM
Ratio EC50 [2]: 26
Emax [3]: 0%
EC50 [11]: 218 µM
Ki [12]: 25 nM

C(=C\[C@@H]1CCNC1)/c1cccnc1.O=C(O)C(F)(F)F
Emax [4]: 58%
Emax [6]: 109%
EC50 [13]: 800 nM
Ratio EC50 [1]: 20
EC50 [14]: 4.4 µM
Ki [8]: 184 nM
Ki [9]: 3.16 µM
Ratio EC50 [2]: 3.6
Emax [3]: 66%
EC50 [11]: 16 µM
Ki [12]: 11 nM

c1cncc(C2CC3CCN2CC3)c1 (stereo not given)
Emax [6]: 29%
